Test results reported in patent US20250340604A1, “BLOOD-BRAIN BARRIER TRANSLOCATING PEPTIDES AND RELATED MOLECULES AND METHODS OF USE THEREOF” (Enkefalos Biosciences, Inc., priority 2022, published 2025).
Read-outs that look alike come from different tables or passages of the source. Ends that are not written are not given here.

Columns and labels:
[1] = monovalent trastuzumab knob-hole cyclotide fusions, 25 mg/kg, 24 hours, brain homogenate ELISA, versus trastuzumab alone; FIG. 8B
Method: Female C57BL/6 mice, age 10-12 weeks, were weighed and administered purified trastuzumab antibody or trastuzumab antibody-monovalent cyclotide fusions, made monovalent by knobs-holes fusion (targeting IGF1R, LRP1, or RAGE receptors) in triplicate at 25 mg/kg in phosphate buffered saline (PBS). After 24 hours, mice were perfused with Dulbecco's PBS containing anesthetic via aortic puncture and brains were removed. One brain hemisphere was transferred to 4% paraformaldehyde in PBS for 24 hours at 4° C., then transferred to PBS at 4° C., paraffin embedded, thin-sectioned using a microtome, and slices were mounted on slides for immunohistochemistry (IHC). The other brain hemisphere was flash frozen and stored at −80° C. prior to homogenization. […]
Antibodies present in brain were quantified by enzyme-linked immunosorbent assay (ELISA). […] Plates were washed 4 times with TBST and once with TBS, developed with 3,3′,5,5′-tetramethylbenzidine (TMB) for 2 minutes, quenched with 1 N sulfuric acid, and read at 450 nm in a SpectraMax plate reader. […] Amounts of antibodies (e.g., antibody fusion proteins or antibody alone) present in brain homogenates were determined by interpolation from each standard curve and were expressed as percents of injected dose per gram of brain (FIG. 8B).

[2] = mouse, even after repeat dose; cited from earlier work
[3] = rat, even after repeat dose; cited from earlier work
[4] = biological target: T1, human transferrin receptor (hTfR) (Homo sapiens, UniProt P02786); experiment: Flow cytometry internalization assay, hTfR-expressing HEK293F cells; type: cell-based; conditions: 50 nM Alexafluor 488 labeled protein, 4 h at 37° C., HEK293F cells transfected with hTfR; FIG. 2
T1 construct: expressed in transfected cells; host or cells: HEK293F
Method: (§1) Free dye was then removed by passage through one to two desalting columns. HEK293F cells were first serially passaged two to three times, then transfected with expression constructs encoding human or mouse transferrin receptor ([…], respectively), and grown for 2-3 days at 37° C., 8% CO2, 130 rpm shaking in preparation for the assay. […] Cells were then pelleted, supernatant discarded, and resuspended in 40 μL fresh media containing 250 nM anti-488 quenching antibody (or media lacking 488 quenching antibody as a control), incubated on ice for 5 min, pelleted, supernatant discarded, washed with 200 μL cold FACS buffer, pelleted, supernatant discarded, and resuspended in 200 μL cold FACS buffer. Each sample was then subjected to FACS analysis using the FITC fluorescence detection channel, using Gate 1 (forward scatter linear vs. side scatter linear) to select live cells with normal morphology, using Gate 2 (side scatter area vs. side scatter linear) to select single cells, and measuring logarithmic FITC signal for 20,000-50,000 cells per sample. Subsequent data analysis was carried out using the FlowJo software package.

[5] = biological target: T2, mouse transferrin receptor (mTfR) (Mus musculus, UniProt Q62351); experiment: Flow cytometry internalization assay, mTfR-expressing HEK293F cells; type: cell-based; conditions: 50 nM Alexafluor 488 labeled protein, 4 h at 37° C., HEK293F cells transfected with mTfR; FIG. 2
T2 construct: expressed in transfected cells; host or cells: HEK293F
Method: as §1

T1 sequence (P02786 whole entry): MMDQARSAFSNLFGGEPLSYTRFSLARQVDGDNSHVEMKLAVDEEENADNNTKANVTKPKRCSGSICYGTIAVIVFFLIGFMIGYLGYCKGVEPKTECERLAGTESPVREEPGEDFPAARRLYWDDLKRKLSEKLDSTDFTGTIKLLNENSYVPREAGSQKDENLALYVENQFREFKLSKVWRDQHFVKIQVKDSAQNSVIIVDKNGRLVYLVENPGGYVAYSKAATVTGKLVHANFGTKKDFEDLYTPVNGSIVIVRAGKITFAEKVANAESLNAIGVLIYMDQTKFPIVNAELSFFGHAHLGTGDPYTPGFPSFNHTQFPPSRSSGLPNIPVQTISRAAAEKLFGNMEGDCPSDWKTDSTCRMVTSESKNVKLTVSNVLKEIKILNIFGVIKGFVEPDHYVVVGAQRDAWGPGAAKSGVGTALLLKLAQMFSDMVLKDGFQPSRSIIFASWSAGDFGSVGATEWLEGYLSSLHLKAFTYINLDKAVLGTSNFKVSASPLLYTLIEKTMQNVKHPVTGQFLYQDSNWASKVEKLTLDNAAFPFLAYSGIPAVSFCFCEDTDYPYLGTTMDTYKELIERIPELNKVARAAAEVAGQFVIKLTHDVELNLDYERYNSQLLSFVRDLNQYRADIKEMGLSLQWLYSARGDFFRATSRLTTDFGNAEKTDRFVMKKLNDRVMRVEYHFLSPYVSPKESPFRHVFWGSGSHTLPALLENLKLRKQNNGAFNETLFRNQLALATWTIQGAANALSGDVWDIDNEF
T2 sequence (Q62351 whole entry): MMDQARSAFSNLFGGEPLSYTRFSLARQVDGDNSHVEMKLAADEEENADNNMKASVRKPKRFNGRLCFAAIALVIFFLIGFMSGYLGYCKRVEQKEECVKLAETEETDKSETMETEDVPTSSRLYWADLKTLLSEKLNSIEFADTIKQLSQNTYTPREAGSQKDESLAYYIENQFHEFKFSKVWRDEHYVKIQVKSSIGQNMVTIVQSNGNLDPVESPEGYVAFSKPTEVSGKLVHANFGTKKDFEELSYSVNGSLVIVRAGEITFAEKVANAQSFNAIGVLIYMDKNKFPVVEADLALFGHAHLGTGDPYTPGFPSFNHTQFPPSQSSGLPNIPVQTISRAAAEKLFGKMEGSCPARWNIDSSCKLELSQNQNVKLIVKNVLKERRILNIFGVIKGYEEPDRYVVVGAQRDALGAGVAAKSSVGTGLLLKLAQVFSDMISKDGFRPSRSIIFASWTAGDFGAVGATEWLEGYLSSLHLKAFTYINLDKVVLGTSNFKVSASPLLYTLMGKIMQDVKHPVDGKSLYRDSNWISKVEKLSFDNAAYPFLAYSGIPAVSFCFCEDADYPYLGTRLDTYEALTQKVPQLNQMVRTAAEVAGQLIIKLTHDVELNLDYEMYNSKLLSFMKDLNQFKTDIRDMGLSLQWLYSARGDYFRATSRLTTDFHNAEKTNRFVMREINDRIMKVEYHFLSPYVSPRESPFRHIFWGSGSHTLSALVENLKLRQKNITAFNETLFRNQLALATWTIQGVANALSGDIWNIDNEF

For “cyclotide binding Hu LRP-1; loop 1 peptide WYETKTKLYVGVVK (SEQ ID NO:43); cyclotide SEQ ID NO:89 (GGVCWYETKTKLYVGVVKCRRDSDCPGACICRGNGYCGSGSD; not fully specified (bridges); cysteine pairing not given here) [CYC34]”, the “trastuzumab delivery to the brain (percents of injected dose per gram of brain)” value [1] was “greatest enhancement”.

In the case of Ziconitide, the “anti-drug antibodies (ADAs)” value [2] is given as “no anti-drug antibodies (ADAs) were detectable” and the “anti-drug antibodies (ADAs)” value [3] is given as “no anti-drug antibodies (ADAs) were detectable”.

In the case of “cyclotide binding Hu LRP-1; loop 1 peptide WLTLGIANKGIDVYDVK (SEQ ID NO:39); cyclotide SEQ ID NO:85 (GGVCWLTLGIANKGIDVYDVKCRRDSDCPGACICRGNGYCGSGSD; not fully specified (bridges); cysteine pairing not given here) [CYC30]”, the “trastuzumab delivery to the brain (percents of injected dose per gram of brain)” value [1] is reported as “did not exhibit enhancement”.

In the case of adalimumab, the “internalization (mean FITC fluorescence intensity)” value [4] is reported as “not” and the “internalization (mean FITC fluorescence intensity)” value [5] is reported as “not”.
